Results from patent US5120735A, “Antifungal composition” (Kaken Pharmaceutical Co., Ltd., priority 1987, dated 1992).

Legend:
ICR male mice = assay: Acute toxicity, oral, mice; format: in vivo; conditions: up to 5,000 mg/kg, ICR male mice of 5 weeks old
Source text: To examine the acute toxicity of the arylmethylamine antifungal agents used in the composition of the present invention, Compounds 1 and 2 were selected, and they were, respectively, suspended in 0.5% methyl cellulose and orally administered to ICR male mice of 5 weeks old (body weight: 26-28 g) at a dose corresponding to the body weight.

[1] = test system: Candida albicans MTU 12021; assay: Checker board method, combined use of Compound 1 with miconazole or ketoconazole; format: cell-based; further: key: +: Growth observed; -: No growth observed
Experimental: (§1) 1 ml of each drug solution diluted twice was introduced into a sterilized Petri dish, and 8 ml of Sabouraud agar medium was added to prepare a agar plate. Thus, a series of agar plates for the combinations having various concentrations were prepared.
(§2) Candida albicans MTU 12021 strain cultured on a Sabouraud agar medium for 24 hours, was suspended in a saline, and a cells suspension having a concentration of 2×10^6 spores/ml was prepared by counting the number of spores by a hemacytometer. Then, 50 μl of the cells suspension was inoculated to the above agar plates by means of a microplanter (manufactured by Sakuma Seisakusho). The inoculated agar plates were cultured at 37° C. for 48 hours, whereupon the presence or absence of the growth of the strain was examined.
(§3) Culture medium: Sabouraud agar medium
(§4) Culturing condition: 37° C. for 48 hours
(§5) Strain used: Candida albicans MTU 12021

[2] = test system: Candida albicans MTU 12021; assay: Influence of combined use of Compound 1 with miconazole over the growth curve; format: cell-based; conditions: 24 and 48 hours, FIG. 1
Experimental: Upon expiration of 24 hours and 48 hours, 0.1 ml of the culture medium was sampled and spread on a Sabouraud agar plate containing 0.5% of yeast extract, followed by culturing at 37° C. for 48 hours. Then, the number of colonies were counted to determine the number of survived fungi.

[3] = test system: Candida albicans MTU 12021; assay: Agar dilution MIC, single and combined use; format: cell-based; conditions: Compound 1 combined with non-azole agents; Table 4
[4] = test system: Candida albicans MTU 12021; assay: Disk method (growth inhibition ring); format: cell-based
Experimental: (3) The effects of the combined use of Compound 1 with miconazole or ketoconazole were examined by a disk method.
Candida albicans MTU 12021 stain was mixed with a Sabouraud agar medium to have a concentration of 5×10^4 spores/ml, and 10 ml thereof was poured into a sterilized Petri dish to obtain an inoculated agar plate.
50 mg of each of Compound 1, miconazole and ketoconazole was impregnated to a disk (Toyo Filter paper of 8 mm in diameter), and the disk was placed on the inoculated agar plate, followed by culturing at 37° C. for 96 hours, whereupon the synergistic effects were evaluated based on the growth inhibition ring thereby appeared.

[5] = test system: Candida albicans MTU 12021; assay: Agar dilution MIC, single and combined use; format: cell-based; conditions: Candida albicans, MTU12021; single use; Sabouraud agar, 37° C., 48 hours; read-out: Minimum Inhibitory Concentration (MIC)
Experimental: (1) The effects of the combined use of Compound 1 with various imidazole antifungal agents against Candida albicans MTU 12021 strain were examined as follows. […] Then, distilled water containing 0.1% by weight of Tween 80 was added thereto to obtain drug solutions having a concentration of from 1 to 1,000 μg/ml.
as §1, §2, §3, §4, §5

In the case of CN(Cc1ccc(C(C)(C)C)cc1)Cc1cccc2ccccc12 [Compound 1, N-4-tert-butylbenzyl-N-methyl-1-naphthalenemethylamine], the death (ICR male mice) is reported as “no instance of death”, the Growth ([1]; Compound 1 0.39 μg/ml, ketoconazole 0) is reported as “+” and the Growth ([1]; Compound 1 0.78 μg/ml, ketoconazole 0) is reported as “+”. The Growth ([1]; Compound 1 1.56 μg/ml, ketoconazole 0) was “+”, the Growth ([1]; Compound 1 3.13 μg/ml, ketoconazole 0) was “+” and the Growth ([1]; Compound 1 3.13 μg/ml, miconazole 0) was “+”. For the same molecule, the Growth ([1]; Compound 1 12.5 μg/ml, ketoconazole 0) was “+”, the Growth ([1]; Compound 1 12.5 μg/ml, miconazole 0) was “+” and the Growth ([1]; Compound 1 25 μg/ml, ketoconazole 0) was “+”. For the same molecule, the Growth ([1]; Compound 1 25 μg/ml, miconazole 0) was “+”, the Growth ([1]; Compound 1 50 μg/ml, ketoconazole 0) was “+” and the Growth ([1]; Compound 1 50 μg/ml, miconazole 0) was “+”. The Growth ([1]; Compound 1 100 μg/ml, ketoconazole 0) was “+”, the Growth ([1]; Compound 1 100 μg/ml, miconazole 0) was “+” and the Growth ([1]; Compound 1 0.39 + ketoconazole 0.1 μg/ml) was “+”. For the same molecule, the Growth ([1]; Compound 1 0.39 + ketoconazole 0.2 μg/ml) was “+”, the Growth ([1]; Compound 1 0.39 + ketoconazole 0.39 μg/ml) was “+” and the Growth ([1]; Compound 1 0.39 + ketoconazole 0.78 μg/ml) was “+”. For the same molecule, the Growth ([1]; Compound 1 0.39 + ketoconazole 1.56 μg/ml) was “+”, the Growth ([1]; Compound 1 0.39 + ketoconazole 3.13 μg/ml) was “+” and the Growth ([1]; Compound 1 0.39 + ketoconazole 12.5 μg/ml) was “+”. For the same molecule, the Growth ([1]; Compound 1 0.39 + ketoconazole 25 μg/ml) was “-”, the Growth ([1]; Compound 1 0.39 + ketoconazole 50 μg/ml) was “-” and the Growth ([1]; Compound 1 0.39 + ketoconazole 100 μg/ml) was “-”. The Growth ([1]; Compound 1 0.78 + ketoconazole 0.1 μg/ml) was “+”, the Growth ([1]; Compound 1 0.78 + ketoconazole 25 μg/ml) was “-” and the Growth ([1]; Compound 1 0.78 + ketoconazole 50 μg/ml) was “-”. The Growth ([1]; Compound 1 0.78 + ketoconazole 100 μg/ml) was “-”, the Growth ([1]; Compound 1 1.56 + ketoconazole 0.1 μg/ml) was “+” and the Growth ([1]; Compound 1 1.56 + ketoconazole 25 μg/ml) was “-”. For the same molecule, the Growth ([1]; Compound 1 1.56 + ketoconazole 50 μg/ml) was “-”, the Growth ([1]; Compound 1 1.56 + ketoconazole 100 μg/ml) was “-” and the Growth ([1]; Compound 1 3.13 + ketoconazole 0.1 μg/ml) was “+”. For the same molecule, the Growth ([1]; Compound 1 3.13 + ketoconazole 25 μg/ml) was “-”, the Growth ([1]; Compound 1 3.13 + ketoconazole 50 μg/ml) was “-” and the Growth ([1]; Compound 1 3.13 + ketoconazole 100 μg/ml) was “-”. For the same molecule, the Growth ([1]; Compound 1 3.13 + miconazole 0.39 μg/ml) was “+”, the Growth ([1]; Compound 1 3.13 + miconazole 0.78 μg/ml) was “+” and the Growth ([1]; Compound 1 3.13 + miconazole 1.56 μg/ml) was “+”. For the same molecule, the Growth ([1]; Compound 1 3.13 + miconazole 3.13 μg/ml) was “+”, the Growth ([1]; Compound 1 3.13 + miconazole 12.5 μg/ml) was “+” and the Growth ([1]; Compound 1 3.13 + miconazole 25 μg/ml) was “+”. For the same molecule, the Growth ([1]; Compound 1 3.13 + miconazole 50 μg/ml) was “-”, the Growth ([1]; Compound 1 3.13 + miconazole 100 μg/ml) was “-” and the Growth ([1]; Compound 1 6.25 + ketoconazole 0.1 μg/ml) was “+”. The Growth ([1]; Compound 1 6.25 + ketoconazole 25 μg/ml) was “-”, the Growth ([1]; Compound 1 6.25 + ketoconazole 50 μg/ml) was “-” and the Growth ([1]; Compound 1 6.25 + ketoconazole 100 μg/ml) was “-”. The Growth ([1]; Compound 1 6.25 + miconazole 0.39 μg/ml) was “+”, the Growth ([1]; Compound 1 6.25 + miconazole 0.78 μg/ml) was “+” and the Growth ([1]; Compound 1 6.25 + miconazole 1.56 μg/ml) was “+”. The Growth ([1]; Compound 1 6.25 + miconazole 3.13 μg/ml) was “+”, the Growth ([1]; Compound 1 6.25 + miconazole 12.5 μg/ml) was “+” and the Growth ([1]; Compound 1 6.25 + miconazole 25 μg/ml) was “+”. For the same molecule, the Growth ([1]; Compound 1 6.25 + miconazole 50 μg/ml) was “-”, the Growth ([1]; Compound 1 6.25 + miconazole 100 μg/ml) was “-” and the Growth ([1]; Compound 1 12.5 + ketoconazole 0.1 μg/ml) was “+”. The Growth ([1]; Compound 1 12.5 + ketoconazole 25 μg/ml) was “-”, the Growth ([1]; Compound 1 12.5 + ketoconazole 50 μg/ml) was “-” and the Growth ([1]; Compound 1 12.5 + ketoconazole 100 μg/ml) was “-”. The Growth ([1]; Compound 1 12.5 + miconazole 0.39 μg/ml) was “+”, the Growth ([1]; Compound 1 12.5 + miconazole 0.78 μg/ml) was “+” and the Growth ([1]; Compound 1 12.5 + miconazole 50 μg/ml) was “-”. For the same molecule, the Growth ([1]; Compound 1 12.5 + miconazole 100 μg/ml) was “-”, the Growth ([1]; Compound 1 25 + ketoconazole 0.1 μg/ml) was “+” and the Growth ([1]; Compound 1 25 + ketoconazole 25 μg/ml) was “-”. The Growth ([1]; Compound 1 25 + ketoconazole 50 μg/ml) was “-”, the Growth ([1]; Compound 1 25 + ketoconazole 100 μg/ml) was “-” and the Growth ([1]; Compound 1 25 + miconazole 0.39 μg/ml) was “+”. The Growth ([1]; Compound 1 25 + miconazole 0.78 μg/ml) was “+”, the Growth ([1]; Compound 1 25 + miconazole 50 μg/ml) was “-” and the Growth ([1]; Compound 1 25 + miconazole 100 μg/ml) was “-”. The Growth ([1]; Compound 1 50 + ketoconazole 0.1 μg/ml) was “+”, the Growth ([1]; Compound 1 50 + ketoconazole 25 μg/ml) was “-” and the Growth ([1]; Compound 1 50 + ketoconazole 50 μg/ml) was “-”. For the same molecule, the Growth ([1]; Compound 1 50 + ketoconazole 100 μg/ml) was “-”, the Growth ([1]; Compound 1 50 + miconazole 0.39 μg/ml) was “+” and the Growth ([1]; Compound 1 50 + miconazole 0.78 μg/ml) was “+”. For the same molecule, the Growth ([1]; Compound 1 50 + miconazole 50 μg/ml) was “-”, the Growth ([1]; Compound 1 50 + miconazole 100 μg/ml) was “-” and the Growth ([1]; Compound 1 100 + ketoconazole 0.1 μg/ml) was “+”. The Growth ([1]; Compound 1 100 + ketoconazole 25 μg/ml) was “-”, the Growth ([1]; Compound 1 100 + ketoconazole 50 μg/ml) was “-” and the Growth ([1]; Compound 1 100 + ketoconazole 100 μg/ml) was “-”. The Growth ([1]; Compound 1 100 + miconazole 0.39 μg/ml) was “+”, the Growth ([1]; Compound 1 100 + miconazole 0.78 μg/ml) was “+” and the Growth ([1]; Compound 1 100 + miconazole 50 μg/ml) was “-”. The Growth ([1]; Compound 1 100 + miconazole 100 μg/ml) was “-”, the “influence over growth curve” value [2] was “fungistatic or fungicidal effects were enhanced” and the “synergistic effects of combined use with non-azole antifungal agents” value [3] was “no synergistic effects were observed”. The “effect of combined use with miconazole on inhibitory ring” value ([4]; Compound 1 disk on periphery of incomplete inhibitory ring of miconazole disk, FIG. 2) was “a portion of the incomplete inhibitory ring is completely inhibited”, the “effects of combined use, Compound 1 with ketoconazole” value ([4]; FIG. 3) was “remarkable effects of the combined use” and the MIC [5] was over 100 µg/mL.
